Drawing on patent publication US8912178B2, “mTOR selective kinase inhibitors” (Xcovery Holdings Company, LLC, priority 2010, dated 2014), this text covers IC50 for one compound.

The target in one experiment is T1, mTOR (Homo sapiens, UniProt P42345).
T1 construct: purchased Ambit Biosciences (contract assay)
As to the kind of experiment: Kinase competition binding assay (Ambit Biosciences), mTOR. The note with it: tested at Ambit Biosciences; read-out: IC50 against mTOR. How it is done: (§1) Assays are performed as described in Fabian et al. (2005) Nature Biotechnology, vol. 23, p. 329 and in Karaman et al. (2008) Nature Biotechnology, vol. 26, p. 127.
(§2) Kinase assays. For most assays, kinase-tagged T7 phage strains are grown in parallel in 24-well blocks in an E. coli host derived from the BL21 strain. E. coli are grown to log-phase and are infected with T7 phage from a frozen stock (multiplicity of infection˜0.1) and are incubated with shaking at 32° C. until lysis (˜90 minutes). The lysates are centrifuged (6,000×g) and filtered ([…]) to remove cell debris. The remaining kinases are produced in HEK-293 cells and subsequently tagged with DNA for qPCR detection. Streptavidin-coated magnetic beads are treated with biotinylated small molecule ligands for 30 minutes at room temperature to generate affinity resins for kinase assays. The liganded beads are blocked with excess biotin and washed with blocking buffer (SeaBlock (Pierce), 1% BSA, 0.05% Tween 20, 1 mM DTT) to remove unbound ligand and to reduce non-specific phage binding. Binding reactions are assembled by combining kinases, liganded affinity beads, and test compounds in 1× binding buffer (20% SeaBlock, 0.17×PBS, 0.05% Tween 20, 6 mM DTT). Test compounds are prepared as 40× stocks in 100% DMSO and directly diluted into the assay. All reactions are performed in polypropylene 384-well plates in a final volume of 0.04 ml. The assay plates are incubated at room temperature with shaking for 1 hour and the affinity beads are washed with wash buffer (1×PBS, 0.05% Tween 20). The beads are then re-suspended in elution buffer (1×PBS, 0.05% Tween 20, 0.5 mM non-biotinylated affinity ligand) and are incubated at room temperature with shaking for 30 minutes. The kinase concentration in the eluates is measured by qPCR.
(§3) Compounds were tested using the above assay at Ambit Biosciences (San Diego, Calif., USA).

In the next experiment the target is T2, PI3Kα (Homo sapiens, UniProt P42336).
T2 construct: purchased Ambit Biosciences (contract assay)
As to the kind of experiment: Kinase competition binding assay (Ambit Biosciences), PI3Kα. To be noted: tested at Ambit Biosciences; read-out: IC50 against PI3Kα. How it is done: as §1, §2, §3

Another experiment deals with T3, PI3Kβ (Homo sapiens, UniProt P42338).
T3 construct: purchased Ambit Biosciences (contract assay)
Put plainly: Kinase competition binding assay (Ambit Biosciences), PI3Kβ. To be noted: tested at Ambit Biosciences; read-out: IC50 against PI3Kβ. As to the method: as §1, §2, §3

Another experiment has as its target T4, PI3Kδ (Homo sapiens, UniProt O00329).
T4 construct: purchased Ambit Biosciences (contract assay)
T4 sequence (O00329 1-1044): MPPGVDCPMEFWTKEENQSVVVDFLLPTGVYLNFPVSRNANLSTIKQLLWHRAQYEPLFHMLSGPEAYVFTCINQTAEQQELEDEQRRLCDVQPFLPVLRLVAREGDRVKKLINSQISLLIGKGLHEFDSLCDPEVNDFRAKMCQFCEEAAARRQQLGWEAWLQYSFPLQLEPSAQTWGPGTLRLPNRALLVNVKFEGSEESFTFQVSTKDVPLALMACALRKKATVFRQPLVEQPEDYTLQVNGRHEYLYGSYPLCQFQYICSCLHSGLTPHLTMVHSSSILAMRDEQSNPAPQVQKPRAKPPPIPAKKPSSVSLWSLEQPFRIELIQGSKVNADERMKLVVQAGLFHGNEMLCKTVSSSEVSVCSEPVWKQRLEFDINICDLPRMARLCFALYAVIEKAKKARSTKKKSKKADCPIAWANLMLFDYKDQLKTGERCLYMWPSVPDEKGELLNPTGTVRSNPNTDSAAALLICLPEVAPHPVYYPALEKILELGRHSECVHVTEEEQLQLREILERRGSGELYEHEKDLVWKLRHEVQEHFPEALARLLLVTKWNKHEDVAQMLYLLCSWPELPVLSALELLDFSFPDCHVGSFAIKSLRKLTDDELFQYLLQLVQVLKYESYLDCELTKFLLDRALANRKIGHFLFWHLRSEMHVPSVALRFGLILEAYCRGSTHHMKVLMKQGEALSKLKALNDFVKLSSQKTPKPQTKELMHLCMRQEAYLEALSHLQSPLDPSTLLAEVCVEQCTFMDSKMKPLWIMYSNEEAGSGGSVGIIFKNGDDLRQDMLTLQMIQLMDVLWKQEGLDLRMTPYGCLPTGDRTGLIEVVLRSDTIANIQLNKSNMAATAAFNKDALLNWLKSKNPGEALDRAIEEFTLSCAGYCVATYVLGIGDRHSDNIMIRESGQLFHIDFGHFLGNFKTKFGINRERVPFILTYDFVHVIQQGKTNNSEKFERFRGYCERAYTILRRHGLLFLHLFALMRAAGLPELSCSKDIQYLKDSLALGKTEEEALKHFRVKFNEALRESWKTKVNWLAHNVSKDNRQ
Put plainly: Kinase competition binding assay (Ambit Biosciences), PI3Kδ. The note with it: tested at Ambit Biosciences; read-out: IC50 against PI3Kδ. As to the method:
as §1, §2, §3

For the next experiment, the target named is T5, PI3Kγ (Homo sapiens, UniProt P48736).
T5 construct: purchased Ambit Biosciences (contract assay)
As to the kind of experiment: Kinase competition binding assay (Ambit Biosciences), PI3Kγ. To be noted: tested at Ambit Biosciences; read-out: IC50 against PI3Kγ. How it is done:
as §1, §2, §3

The test system of the next experiment is U87-MG cells. As to the kind of experiment: Proliferation assay (Alamar blue), U87-MG. It is filed as cell-based. The note with it: Homo sapiens, U-87 MG, 48 h, 46-h incubation + 2-h Alamar blue, read-out: IC50 against proliferation of U87-MG cells. As to the method:
(§4) Cells (U87-MG, A375, HeLa, A549, MCF7, and MCF7 ADR-res) are cultured in DMEM with 10% fetal bovine serum and streptomycin/penicillin. Solutions of the test compounds (1 μL) are spotted onto a 96-well culture plate, followed by addition of cells (1×10^4) in 100 μL. After 46-h incubation, 10 μL of Alamar blue reagent is added to each well. After 2-h, the excitation/emission wavelengths at 544/590 nm are measured using Fluostar.
Background: The colour change of resazurin is a common sign of viable cells or microbes.

The next experiment relates to A549 cells. Put plainly: Proliferation assay (Alamar blue), A549. It is filed as cell-based. The note with it: Homo sapiens, 48 h; A549, 46-h incubation + 2-h Alamar blue; read-out: IC50 against proliferation of A549 cells. As to the method: as §4

T2 sequence (P42336 whole entry): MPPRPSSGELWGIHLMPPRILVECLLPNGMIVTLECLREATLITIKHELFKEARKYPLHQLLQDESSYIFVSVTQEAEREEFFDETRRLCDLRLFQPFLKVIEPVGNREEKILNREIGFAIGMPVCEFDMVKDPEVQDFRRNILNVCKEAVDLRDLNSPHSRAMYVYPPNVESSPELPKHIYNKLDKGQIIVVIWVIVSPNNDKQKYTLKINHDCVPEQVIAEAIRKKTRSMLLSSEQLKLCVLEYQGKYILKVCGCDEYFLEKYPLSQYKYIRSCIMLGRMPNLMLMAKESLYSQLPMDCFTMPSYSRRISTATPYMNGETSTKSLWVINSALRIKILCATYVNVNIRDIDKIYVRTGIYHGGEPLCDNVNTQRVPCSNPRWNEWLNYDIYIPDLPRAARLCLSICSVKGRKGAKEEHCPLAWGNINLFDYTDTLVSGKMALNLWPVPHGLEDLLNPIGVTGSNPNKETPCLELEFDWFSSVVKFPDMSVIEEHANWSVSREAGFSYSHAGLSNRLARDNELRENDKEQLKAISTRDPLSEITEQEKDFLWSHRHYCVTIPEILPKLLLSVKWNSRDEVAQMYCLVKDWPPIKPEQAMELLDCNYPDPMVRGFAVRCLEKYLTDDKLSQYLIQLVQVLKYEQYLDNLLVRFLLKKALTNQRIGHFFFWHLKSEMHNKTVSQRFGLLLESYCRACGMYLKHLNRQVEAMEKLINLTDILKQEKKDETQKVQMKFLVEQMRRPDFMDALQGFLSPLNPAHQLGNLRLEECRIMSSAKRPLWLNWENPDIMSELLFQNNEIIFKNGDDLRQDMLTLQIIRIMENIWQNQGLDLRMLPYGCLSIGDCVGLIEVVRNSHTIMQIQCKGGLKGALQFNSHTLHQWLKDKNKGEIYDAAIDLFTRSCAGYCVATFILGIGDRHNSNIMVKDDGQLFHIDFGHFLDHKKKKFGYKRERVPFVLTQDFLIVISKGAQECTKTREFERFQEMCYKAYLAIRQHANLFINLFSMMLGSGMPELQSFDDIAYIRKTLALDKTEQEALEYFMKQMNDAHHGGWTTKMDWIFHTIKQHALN
T5 sequence (P48736 whole entry): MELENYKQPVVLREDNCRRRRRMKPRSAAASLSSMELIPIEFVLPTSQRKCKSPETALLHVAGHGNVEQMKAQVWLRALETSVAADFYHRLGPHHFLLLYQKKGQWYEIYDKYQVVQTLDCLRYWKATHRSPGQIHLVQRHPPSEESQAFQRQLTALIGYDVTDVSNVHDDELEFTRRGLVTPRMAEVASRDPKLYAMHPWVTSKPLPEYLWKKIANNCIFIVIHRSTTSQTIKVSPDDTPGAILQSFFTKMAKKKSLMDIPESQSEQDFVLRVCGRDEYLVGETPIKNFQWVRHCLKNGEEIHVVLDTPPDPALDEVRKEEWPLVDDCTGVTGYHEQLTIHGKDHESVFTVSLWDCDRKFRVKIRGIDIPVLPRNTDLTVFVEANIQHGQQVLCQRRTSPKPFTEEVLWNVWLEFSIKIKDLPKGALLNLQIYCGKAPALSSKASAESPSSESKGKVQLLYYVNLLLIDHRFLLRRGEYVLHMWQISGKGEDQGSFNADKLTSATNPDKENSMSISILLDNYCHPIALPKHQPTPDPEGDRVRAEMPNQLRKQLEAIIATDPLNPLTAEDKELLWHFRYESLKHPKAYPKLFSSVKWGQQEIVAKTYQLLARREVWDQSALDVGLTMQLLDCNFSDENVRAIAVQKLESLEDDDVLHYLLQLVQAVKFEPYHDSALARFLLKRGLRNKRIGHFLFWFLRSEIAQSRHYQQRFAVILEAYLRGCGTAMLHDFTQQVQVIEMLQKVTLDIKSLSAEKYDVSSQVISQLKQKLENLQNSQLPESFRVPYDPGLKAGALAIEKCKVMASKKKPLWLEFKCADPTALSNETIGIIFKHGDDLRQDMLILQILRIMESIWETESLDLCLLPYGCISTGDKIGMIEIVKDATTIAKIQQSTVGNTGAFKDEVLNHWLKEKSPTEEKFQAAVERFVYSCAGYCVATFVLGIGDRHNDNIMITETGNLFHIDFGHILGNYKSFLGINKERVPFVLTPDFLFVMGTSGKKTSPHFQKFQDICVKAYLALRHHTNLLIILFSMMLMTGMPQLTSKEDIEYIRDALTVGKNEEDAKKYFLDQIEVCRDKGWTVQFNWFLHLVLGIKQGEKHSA
T3 sequence (P42338 whole entry): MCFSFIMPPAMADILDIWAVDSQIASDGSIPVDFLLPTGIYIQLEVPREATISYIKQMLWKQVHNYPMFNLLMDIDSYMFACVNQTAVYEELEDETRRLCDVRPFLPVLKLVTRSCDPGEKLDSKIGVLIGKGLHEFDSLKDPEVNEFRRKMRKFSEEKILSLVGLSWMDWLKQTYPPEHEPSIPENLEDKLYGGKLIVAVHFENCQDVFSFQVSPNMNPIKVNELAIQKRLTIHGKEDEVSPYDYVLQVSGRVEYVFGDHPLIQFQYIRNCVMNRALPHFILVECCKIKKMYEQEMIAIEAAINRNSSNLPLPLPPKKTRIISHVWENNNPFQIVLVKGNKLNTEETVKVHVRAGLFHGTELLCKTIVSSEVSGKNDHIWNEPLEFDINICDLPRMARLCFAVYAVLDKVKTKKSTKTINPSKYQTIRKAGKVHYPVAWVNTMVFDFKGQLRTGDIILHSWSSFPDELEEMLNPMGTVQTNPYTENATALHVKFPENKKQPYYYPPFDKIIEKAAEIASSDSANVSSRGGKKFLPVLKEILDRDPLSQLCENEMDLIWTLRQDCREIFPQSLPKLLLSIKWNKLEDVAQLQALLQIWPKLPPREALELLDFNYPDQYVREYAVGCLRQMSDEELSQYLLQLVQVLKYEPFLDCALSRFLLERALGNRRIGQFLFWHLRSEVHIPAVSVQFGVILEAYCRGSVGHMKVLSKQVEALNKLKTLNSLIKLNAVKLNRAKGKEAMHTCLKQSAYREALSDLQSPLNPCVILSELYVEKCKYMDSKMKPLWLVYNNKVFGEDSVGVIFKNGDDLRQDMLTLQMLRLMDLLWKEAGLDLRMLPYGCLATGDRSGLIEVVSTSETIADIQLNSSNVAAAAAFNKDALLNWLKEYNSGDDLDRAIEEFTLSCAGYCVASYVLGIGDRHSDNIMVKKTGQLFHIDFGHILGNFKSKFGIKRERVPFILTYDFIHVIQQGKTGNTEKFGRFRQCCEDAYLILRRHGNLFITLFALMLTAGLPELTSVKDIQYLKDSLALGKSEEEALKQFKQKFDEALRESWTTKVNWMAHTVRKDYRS

Turning to `CNC(=O)Nc1ccc(-c2nc(N3CCOC[C@@H]3C)nc3c2cnn3C2CCOCC2)cc1` [Example 15, 1-methyl-3-[4-[6-[(3S)-3-methylmorpholin-4-yl]-1-tetrahydropyran-4-yl-pyrazolo[3,4-d]pyrimidin-4-yl]phenyl]urea], the IC50 is < 110 nM on mTOR; > 100 nM on PI3Kα; > 100 nM at PI3Kβ; > 100 nM at PI3Kδ; > 100 nM at PI3Kγ; < 1000 nM with U87-MG cells. Besides, the IC50 in the experiment with A549 cells was < 1000 nM.
